In patent US20250339517A1, “LIPID N[…]” (priority 2022, published 2025):

Tested on: F9A6-CD4 T cell hybridoma overlaid on M. tuberculosis-infected macrophages
Assay: Ex vivo MTB Ag85B antigen presentation to CD4 T cells (IL-2 ELISA)
Assay type: cell-based, human
Settings: concurrent activation; decrease for MO-TDM compared to TDM and MO
Method: Briefly, M. tuberculosis-infected MΦs were washed after a 4-hour infection and overlaid with the F9A6-CD4 T cell hybridoma which recognizes an Ag85B epitope in the context of human HLA-DR1. IL-2 secreted from hybridoma T cells or other cytokines secreted from M. tuberculosis-infected MΦs were determined using a sandwich ELISA kit (Biolegend).
By inhibiting the phagosome lysosome fusion in macrophages, TDM not only protects the M. tuberculosis bacilli from intracellular killing but also reduces the priming of T cells due to reduced processing of Mycobacterial antigens in lysosomal compartments. Since increased killing of intracellular MTB in macrophages was observed when they were stimulated with a cubosomal MO-TDM (1 mol %) preparation, it indicated a possible increase in lysosmal processing of its antigens. […] An in vitro antigen presentation assay using a CD4 hybridoma T cell that recognizes a specific epitope of Ag85B was adopted to determine the priming of T cells by macrophages that were stimulated with MO, TDM and MO-TDM (1 mol %). Secreted levels of IL-2 by hybridoma T cells upon overlay to M. tuberculosis infected macrophages with and without stimulation with MO, TDM and MO-TDM (1 mol %) were monitored in a time dependent manner (FIG. 9).

## trehalose 6,6′ dimycolate [TDM]
  antigen presentation to T cells (secreted IL-2 levels), change from day 3 to day 5 post infection: decreased sharply
